The record followed here is PubChem BioAssay AID328 (DTP/NCI, 2004).

Structures are written as SMILES. Where “and” joins values, the source holds several entries; their conditions need not be identical. Identical values can stand only once. Inconclusive results and toxic doses are left out.

The test system of the test is BDF1 mice, P388 leukemia ip, median survival T/C. Description: NCI In Vivo Anticancer Drug Screen. Data for tumor model P388 Leukemia (intraperitoneal) in B6D2F1 (BDF1) mice. The note with it: endpoint: median survival time, higher = longer survival. Summed up:
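Vehicle-dosed animals serve as the reference; survival of compound-dosed, tumour-implanted mice is divided by it.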

Setting [1] is: dose: 100.0 mg/kg/injection, schedule: Q04DX003 (ip), vehicle: saline.
Where [2] appears, read: dose: 200.0 mg/kg/injection, schedule: Q04DX003 (ip), vehicle: saline.
The mark [3] stands for this setting: dose: 100.0 mg/kg/injection, schedule: Q04DX003 (ip), vehicle: saline with Tween-80.
Setting [4] is: dose: 400.0 mg/kg/injection, schedule: Q04DX003 (ip), vehicle: saline with Tween-80.
Where [5] appears, read: dose: 200.0 mg/kg/injection, schedule: Q04DX003 (ip), vehicle: saline with Tween-80.
Where [6] appears, read: dose: 25.0 mg/kg/injection, schedule: Q04DX003 (ip), vehicle: saline with Tween-80.
Where [7] appears, read: dose: 50.0 mg/kg/injection, schedule: Q04DX003 (ip), vehicle: saline with Tween-80.
The mark [8] stands for this setting: dose: 50.0 mg/kg/injection, schedule: Q01DX009 (ip), vehicle: saline with Tween-80.
[9] abbreviates: dose: 100.0 mg/kg/injection, schedule: Q01DX009 (ip), vehicle: saline with Tween-80.
[10] abbreviates: dose: 200.0 mg/kg/injection, schedule: Q01DX009 (ip), vehicle: saline with Tween-80.
[11] abbreviates: dose: 100.0 mg/kg/injection, schedule: Q01DX009 (ip), vehicle: saline.
Where [12] appears, read: dose: 200.0 mg/kg/injection, schedule: Q01DX009 (ip), vehicle: saline.
The mark [13] stands for this setting: dose: 400.0 mg/kg/injection, schedule: Q01DX009 (ip), vehicle: saline.

For the compound `O=C(/C=C\c1ccnc2ccccc12)c1ccc([N+](=O)[O-])cc1`, the T/C by setting is: (dose: 12.5 mg/kg/injection, schedule: Q04DX003 (ip), vehicle: water) 96 % of control; (dose: 25.0 mg/kg/injection, schedule: Q01DX009 (ip), vehicle: water) 114 % of control; (dose: 25.0 mg/kg/injection, schedule: Q04DX003 (ip), vehicle: water) 90 % of control; (dose: 50.0 mg/kg/injection, schedule: Q01DX009 (ip), vehicle: water) 117 % of control; (dose: 50.0 mg/kg/injection, schedule: Q04DX003 (ip), vehicle: water) 115 % of control; (dose: 100.0 mg/kg/injection, schedule: Q01DX009 (ip), vehicle: water) 95 % of control. Also, the T/C reads like this: (dose: 100.0 mg/kg/injection, schedule: Q04DX003 (ip), vehicle: water) 106 % of control and 111 % of control; (dose: 200.0 mg/kg/injection, schedule: Q01DX009 (ip), vehicle: water) 98 % of control; (dose: 200.0 mg/kg/injection, schedule: Q04DX003 (ip), vehicle: water) 100 % of control; (dose: 400.0 mg/kg/injection, schedule: Q01DX009 (ip), vehicle: water) 96 % of control; (dose: 400.0 mg/kg/injection, schedule: Q04DX003 (ip), vehicle: water) 100 % of control.
Regarding `CN(C)CCCNc1ccc(O)c2c1C(=O)c1ccccc1C2=O`, the T/C is, setting by setting: (dose: 6.25 mg/kg/injection, schedule: Q01DX009 (ip), vehicle: saline) 91 % of control; (dose: 12.5 mg/kg/injection, schedule: Q01DX009 (ip), vehicle: saline) 110 % of control and 114 % of control; (dose: 25.0 mg/kg/injection, schedule: Q01DX009 (ip), vehicle: saline) 103 % of control and 109 % of control and 112 % of control; under setting [1], 96 % of control; under setting [2], 112 % of control.
For `O=C1C=C/C(=N/S(=O)(=O)c2ccccc2)c2ccccc21`, the T/C (dose: 0.37 mg/kg/injection, schedule: Q01DX009 (ip), vehicle: DMSO) is 100 % of control; the T/C (dose: 0.75 mg/kg/injection, schedule: Q01DX009 (ip), vehicle: DMSO) is 100 % of control; the T/C (dose: 1.5 mg/kg/injection, schedule: Q01DX009 (ip), vehicle: DMSO) is 100 % of control; the T/C (dose: 12.0 mg/kg/injection, schedule: Q01DX009 (ip), vehicle: DMSO) is 92 % of control; the T/C (dose: 25.0 mg/kg/injection, schedule: Q04DX003 (ip), vehicle: DMSO) is 91 % of control; the T/C (dose: 50.0 mg/kg/injection, schedule: Q04DX003 (ip), vehicle: DMSO) is 104 % of control. Besides, under “dose: 100.0 mg/kg/injection, schedule: Q04DX003 (ip), vehicle: DMSO”, the T/C was 100 % of control.
With `CC(=O)OCCCC/C(=C/c1cc2ccccc2c2ccccc12)[N+](=O)[O-]`, the T/C is, setting by setting: (dose: 50.0 mg/kg/injection, schedule: Q01DX009 (ip), vehicle: Klucel (hydroxypropylcellulose) (HPC)) 100 % of control; (dose: 100.0 mg/kg/injection, schedule: Q01DX009 (ip), vehicle: Klucel (hydroxypropylcellulose) (HPC)) 100 % of control.
Regarding `CNC(=O)C(C)C1C(=O)/C(=C(O)/C=C/C(C)=C\C(C)C2OC3(C)OC(C=CC34CO4)C2C)C(=O)N1C1CCC(O)C(C)O1` (stereo not drawn), the T/C is 100 % of control (dose: 50.0 mg/kg/injection, schedule: Q01DX009 (ip), vehicle: saline) and 109 % of control (dose: 200.0 mg/kg/injection, schedule: Q01DX009 (ip), vehicle: Klucel (hydroxypropylcellulose) (HPC)).
Turning to `CCSSC(=Nc1ccccc1)OCC(C)C`, the T/C (dose: 50.0 mg/kg/injection, schedule: Q01DX009 (ip), vehicle: other) was 119 % of control.
Turning to `O=S(=O)(NC1CCCCC1)c1ccccc1`, the T/C reads like this: (dose: 75.0 mg/kg/injection, schedule: Q01DX009 (ip), vehicle: saline with Tween-80) 90 % of control; under setting [3], 95 % of control; (dose: 150.0 mg/kg/injection, schedule: Q01DX009 (ip), vehicle: saline with Tween-80) 90 % of control; (dose: 300.0 mg/kg/injection, schedule: Q01DX009 (ip), vehicle: saline with Tween-80) 95 % of control; under setting [4], 100 % of control.
With `C=CCN(CC=C)C(=O)OCC`, the T/C under setting [3] is 100 % of control, the T/C under setting [5] is 120 % of control and the T/C under setting [4] is 104 % of control.
As to `CC(C)(C)Cc1cc(O)c2c(c1O)C(=O)c1ccccc1C2=O`, the T/C by setting is: under setting [6], 100 % of control; under setting [7], 102 % of control; under setting [3], 95 % of control.
On to `CCCCN(CCCC)c1ccc(/C=C/c2ccnc3ccccc23)cc1`, for which the T/C (dose: 100.0 mg/kg/injection, schedule: Q01DX009 (sc), vehicle: olive oil, sesame oil, peanut oil) was 88 % of control; the T/C (dose: 100.0 mg/kg/injection, schedule: Q04DX003 (sc), vehicle: olive oil, sesame oil, peanut oil) was 88 % of control and 95 % of control; the T/C (dose: 200.0 mg/kg/injection, schedule: Q01DX009 (sc), vehicle: olive oil, sesame oil, peanut oil) is 88 % of control; the T/C (dose: 200.0 mg/kg/injection, schedule: Q04DX003 (sc), vehicle: olive oil, sesame oil, peanut oil) is 92 % of control and 95 % of control; the T/C (dose: 400.0 mg/kg/injection, schedule: Q01DX009 (sc), vehicle: olive oil, sesame oil, peanut oil) was 92 % of control; the T/C (dose: 400.0 mg/kg/injection, schedule: Q04DX003 (sc), vehicle: olive oil, sesame oil, peanut oil) was 92 % of control and 95 % of control.
Consider `C1=C(c2ccccc2)C(c2ccccc2)=C(c2ccccc2)C(c2ccccc2)C(c2ccccc2)=N1` (stereo not drawn), for which the T/C is 100 % of control under setting [8], 92 % of control under setting [9] and 106 % of control under setting [10].
In the case of `O=C(O)c1ccc(Cl)cc1Nc1ccc(Cl)cc1`, the T/C runs as follows: under setting [6], 120 % of control; under setting [7], 100 % of control; under setting [3], 100 % of control.
With `CC(C)=CC(=O)OCC1CC[N+](C)([O-])C1` (stereo not drawn), the T/C under setting [11] was 100 % of control; the T/C (dose: 200.0 mg/kg/injection, schedule: Q01DX001 (ip), vehicle: saline) was 95 % of control; the T/C under setting [12] was 91 % of control; the T/C under setting [13] is 103 % of control; the T/C (dose: 800.0 mg/kg/injection, schedule: Q01DX001 (ip), vehicle: saline) was 91 % of control; the T/C (dose: 800.0 mg/kg/injection, schedule: Q01DX009 (ip), vehicle: saline) is 103 % of control.
As to `COc1cccc2c1C(=O)c1c(O)c3c(c(O)c1C2=O)C[C@@](O)(C(C)=O)C[C@@H]3OC1CC(N(C)C)C(O)C(C)O1` (stereo partly drawn), the T/C is, setting by setting: (dose: 3.46 mg/kg/injection, schedule: Q04DX003 (ip), vehicle: water) 161 % of control; (dose: 5.76 mg/kg/injection, schedule: Q04DX003 (ip), vehicle: water) 167 % of control; (dose: 9.6 mg/kg/injection, schedule: Q04DX003 (ip), vehicle: water) 184 % of control; (dose: 16.0 mg/kg/injection, schedule: Q04DX003 (ip), vehicle: water) 110 % of control.
For `Cc1cccc(-n2nc3c(=O)n(C)c(=O)n(C)c3nc2=O)c1`, the T/C is, setting by setting: (dose: 100.0 mg/kg/injection, schedule: Q01DX001 (ip), vehicle: saline with Tween-80) 88 % of control; (dose: 200.0 mg/kg/injection, schedule: Q01DX001 (ip), vehicle: saline with Tween-80) 96 % of control; (dose: 400.0 mg/kg/injection, schedule: Q01DX001 (ip), vehicle: saline with Tween-80) 92 % of control.
On to `O=C(O)c1c[nH]n2c(=S)ncnc12`, for which the T/C reads like this: under setting [8], 93 % of control; under setting [7], 104 % of control; under setting [9], 104 % of control; under setting [3], 91 % of control; under setting [10], 100 % of control; under setting [5], 87 % of control. Further, the T/C is 93 % of control (dose: 400.0 mg/kg/injection, schedule: Q01DX009 (ip), vehicle: saline with Tween-80) and 95 % of control under setting [4].
For `CC(N)C(=O)NCC(=O)NCC(=O)O` (stereo not drawn), the T/C is, setting by setting: under setting [11], 95 % of control; under setting [1], 104 % of control; under setting [12], 104 % of control; under setting [2], 95 % of control; under setting [13], 100 % of control; (dose: 400.0 mg/kg/injection, schedule: Q04DX003 (ip), vehicle: saline) 95 % of control.
